Results from US20240360101A1, “PHARMACEUTICAL SALTS OF A CHK-1 INHIBITOR” (SENTINEL ONCOLOGY LIMITED, priority 2021, published 2024).
Where a name gives a salt, the structure may show the parent alone.

Legend:
[1] = Gravimetric vapour sorption (GVS); assay type: physicochemical; settings: for GVS weight loss, initial desorption cycle: from 50% RH to 0% RH; for GVS water gain, subsequent sorption cycle: up to 90% RH; for crystalline form (XRPD) after GVS at extremes of humidity: 0% RH and 90% RH, result in words
Description: Sorption isotherms were obtained using a Hiden Isochema moisture sorption analyser (model IGAsorp), controlled by IGAsorp Systems Software V6.50.48. The sample was maintained at a constant temperature (25° C.) by the instrument controls. The humidity was controlled by mixing streams of dry and wet nitrogen, with a total flow of 250 ml·min−. The instrument was verified for relative humidity (RH) content by measuring three calibrated Rotronic salt solutions (10-50-88%). The weight change of the sample was monitored as a function of humidity by a microbalance (accuracy+/−0.005 mg). A defined amount of sample was placed in a tared mesh stainless steel basket under ambient conditions. A full experimental cycle typically consisted of three scans (sorption, desorption and sorption) at a constant temperature (25° C.) and 10% RH intervals over a 0-90% range (60 minutes for each humidity level).

[2] = Solubility of the salts in biorelevant media; assay type: physicochemical; settings: for solubility FaSSGF (pH 1.37): Fasted State Simulated Gastric Fluid; for solubility FaSSGF (pH 1.37) / solubility FaSSIF (pH 6.71) / solubility FeSSIF (pH 5.14): 25° C., 24 h, HPLC; for solubility FaSSIF (pH 6.71): Fasted State Simulated Intestinal Fluid; for solubility FeSSIF (pH 5.14): Fed State Simulated Intestinal Fluid; for solubility in FaSSGF (gastric fluid) compared with the free base: result in words
Description: Biorelevant media (DI H2O, FeSSIF, FaSSIF and FaSSGF) (2 mL) was charged. Samples were left to equilibrate (25° C.) over 24 h. Solubility measurements were taken using HPLC (see Method 1 above).

[3] = Two-week stability (HPLC purity); assay type: physicochemical; settings: two-week storage at 25° C./60% RH and 40° C./75% RH; result in words
Description: HPLC analysis was carried out on an Agilent 1110/1200 series HPLC system. The column used was an Triart C18; 150×4.6 mm, 3.0 μm particle size (Ex Waters, PN: 186004644). The flow rate was 1.0 mL/min. Mobile phase A was Water:Trifluoroacetic acid (100:0.1%) and mobile phase B was Acetonitrile:Trifluoroacetic acid (100:0.1%). Detection was by UV at 302 nm. The injection volume was 5 μL, column temperature 40° C. and the following gradient was used: […]
Experimental: Maleate salt pattern B (30 mg) was placed into separate 15 mL type I glass vials. To these vials, a HDPE plastic cap was loosely attached to allow the ingress of moisture. The vials were then placed into ICH rated stability cabinets at 25° C./60% RH and 40° C./75% RH and in cold storage at 2-8° C. Following 2 weeks of storage these samples were removed from the stability cabinets and cold storage and the chemical purity assessed by HPLC (method 2). The relevant data was collected using a wavelength of 302 nm. The samples were prepared in MeCN:water (1:1).

COc1cc(C2(F)CCN(C)CC2)ccc1-c1cc(Nc2cnc(C#N)cn2)n[nH]1 [Besylate Pattern A, 5-[[5-[4-(4-fluoro-1-methyl-4-piperidyl)-2-methoxy-phenyl]-1H-pyrazol-3-yl]amino]pyrazine-2-carbonitrile]
GVS sharp increase, sorption cycle ([1]; from 40% RH to 60% RH): 6% | GVS weight loss, initial desorption cycle ([1]; 25° C.): 2.5 wt % | GVS steady decrease, following desorption cycle ([1]; from 90% RH to 30% RH): ~3 wt % | GVS water gain, subsequent sorption cycle ([1]; 25° C.): 10%

COc1cc(C2(F)CCN(C)CC2)ccc1-c1cc(Nc2cnc(C#N)cn2)n[nH]1 [Besylate Pattern C, 5-[[5-[4-(4-fluoro-1-methyl-4-piperidyl)-2-methoxy-phenyl]-1H-pyrazol-3-yl]amino]pyrazine-2-carbonitrile]
GVS sharp increase, sorption cycle ([1]; between 0% RH and 20% RH): ~2.5 wt % | GVS weight loss, initial desorption cycle ([1]; 25° C.): ~3 wt % | GVS water gain, subsequent sorption cycle ([1]; 25° C.): 3.75%

COc1cc(C2(F)CCN(C)CC2)ccc1-c1cc(Nc2cnc(C#N)cn2)n[nH]1 [Maleate Pattern A, 5-[[5-[4-(4-fluoro-1-methyl-4-piperidyl)-2-methoxy-phenyl]-1H-pyrazol-3-yl]amino]pyrazine-2-carbonitrile]
crystalline form (XRPD) after GVS at extremes of humidity [1]: A new pattern was isolated at 0 and 90% RH and was named B | GVS weight gain at 90% RH, following sorption cycles ([1]; 90% RH, following sorption cycles): 4 wt % | GVS water loss, subsequent desorption cycle ([1]; down to 0% RH, 25° C.): 4% | GVS weight gain, initial sorption cycle ([1]; from 50% RH to 90% RH, 25° C.): 1.5 wt %

COc1cc(C2(F)CCN(C)CC2)ccc1-c1cc(Nc2cnc(C#N)cn2)n[nH]1 [Naphthalene-2-Sulfonate Pattern A, 5-[[5-[4-(4-fluoro-1-methyl-4-piperidyl)-2-methoxy-phenyl]-1H-pyrazol-3-yl]amino]pyrazine-2-carbonitrile]
crystalline form (XRPD) after GVS at extremes of humidity [1]: no change in the crystallinity of the solid occurred at extremes of humidity | GVS weight loss, initial desorption cycle ([1]; 25° C.): 1 wt % | GVS water gain, subsequent sorption cycle ([1]; 25° C.): ~2.25%

COc1cc(C2(F)CCN(C)CC2)ccc1-c1cc(Nc2cnc(C#N)cn2)n[nH]1 [Tosylate Pattern A, 5-[[5-[4-(4-fluoro-1-methyl-4-piperidyl)-2-methoxy-phenyl]-1H-pyrazol-3-yl]amino]pyrazine-2-carbonitrile]
crystalline form (XRPD) after GVS at extremes of humidity [1]: No form change at 0% RH and 90% RH | GVS sharp decrease, initial desorption ([1]; from 10% RH to 0% RH): ~3 wt % | GVS steady increase, subsequent sorption ([1]; from 10% RH to 90% RH): ~1% | GVS weight loss, initial desorption cycle ([1]; 25° C.): 3.5 wt % | GVS steady decrease, initial desorption ([1]; from 50% RH to 10% RH): 0.5 wt % | GVS sharp water gain, subsequent sorption ([1]; up to 10% RH): ~3%

COc1cc(C2(F)CCN(C)CC2)ccc1-c1cc(Nc2cnc(C#N)cn2)n[nH]1 [besylate pattern B, 5-[[5-[4-(4-fluoro-1-methyl-4-piperidyl)-2-methoxy-phenyl]-1H-pyrazol-3-yl]amino]pyrazine-2-carbonitrile]
solubility FaSSGF (pH 1.37) [2]: 0.55 mg/mL | solubility FaSSIF (pH 6.71) [2]: 0.04 mg/mL | solubility FeSSIF (pH 5.14) [2]: 0.57 mg/mL | Aqueous solubility mg/mL 24 h: 1.18 mg/mL | GVS weight loss, initial desorption cycle ([1]; 25° C.): 1 wt % | GVS water gain, subsequent sorption cycle ([1]; 25° C.): ~2.25%

COc1cc(C2(F)CCN(C)CC2)ccc1-c1cc(Nc2cnc(C#N)cn2)n[nH]1 [bis-besylate pattern B, 5-[[5-[4-(4-fluoro-1-methyl-4-piperidyl)-2-methoxy-phenyl]-1H-pyrazol-3-yl]amino]pyrazine-2-carbonitrile]
Aqueous solubility mg/mL 24 h: 0.06 mg/mL

COc1cc(C2(F)CCN(C)CC2)ccc1-c1cc(Nc2cnc(C#N)cn2)n[nH]1 [bis-maleate pattern B, 5-[[5-[4-(4-fluoro-1-methyl-4-piperidyl)-2-methoxy-phenyl]-1H-pyrazol-3-yl]amino]pyrazine-2-carbonitrile]
Aqueous solubility mg/mL 24 h: 0.15 mg/mL

COc1cc(C2(F)CCN(C)CC2)ccc1-c1cc(Nc2cnc(C#N)cn2)n[nH]1 [hydrochloride pattern C, 5-[[5-[4-(4-fluoro-1-methyl-4-piperidyl)-2-methoxy-phenyl]-1H-pyrazol-3-yl]amino]pyrazine-2-carbonitrile]
solubility FaSSGF (pH 1.37) [2]: 8.39 mg/mL | solubility FaSSIF (pH 6.71) [2]: 0.15 mg/mL | solubility FeSSIF (pH 5.14) [2]: 0.61 mg/mL | Aqueous solubility mg/mL 24 h: 10.37 mg/mL

COc1cc(C2(F)CCN(C)CC2)ccc1-c1cc(Nc2cnc(C#N)cn2)n[nH]1 [maleate salt, 5-[[5-[4-(4-fluoro-1-methyl-4-piperidyl)-2-methoxy-phenyl]-1H-pyrazol-3-yl]amino]pyrazine-2-carbonitrile maleate]
solubility in FaSSGF (gastric fluid) compared with the free base ([2]; listed as maleate, maleate): improved solubility over the free base in FaSSGF | solubility in FaSSGF (gastric fluid) compared with the free base ([2]; maleate): improved solubility in gastric fluid | physical, polymorphic and chemical stability on storage [3]: remained as a free flowing solid with no evidence of deliquescence or agglomeration and no change in polymorphic form with good chemical stability

COc1cc(C2(F)CCN(C)CC2)ccc1-c1cc(Nc2cnc(C#N)cn2)n[nH]1 [malonate pattern B, 5-[[5-[4-(4-fluoro-1-methyl-4-piperidyl)-2-methoxy-phenyl]-1H-pyrazol-3-yl]amino]pyrazine-2-carbonitrile]
solubility FaSSGF (pH 1.37) [2]: 3.24 mg/mL | solubility FeSSIF (pH 5.14) [2]: 0.27 mg/mL | Aqueous solubility mg/mL 24 h: 7.41 mg/mL | GVS sharp increase, sorption cycle ([1]; between 30% RH and 40% RH): ~3 wt % | GVS weight loss, initial desorption cycle ([1]; 25° C.): 5 wt % | GVS water gain, subsequent sorption cycle ([1]; 25° C.): 7.5%

COc1cc(C2(F)CCN(C)CC2)ccc1-c1cc(Nc2cnc(C#N)cn2)n[nH]1 [malonate, 5-[[5-[4-(4-fluoro-1-methyl-4-piperidyl)-2-methoxy-phenyl]-1H-pyrazol-3-yl]amino]pyrazine-2-carbonitrile]
solubility in FaSSGF (gastric fluid) compared with the free base [2]: improved solubility over the free base in FaSSGF

COc1cc(C2(F)CCN(C)CC2)ccc1-c1cc(Nc2cnc(C#N)cn2)n[nH]1 [oxalate pattern A, 5-[[5-[4-(4-fluoro-1-methyl-4-piperidyl)-2-methoxy-phenyl]-1H-pyrazol-3-yl]amino]pyrazine-2-carbonitrile]
Aqueous solubility mg/mL 24 h: 3.16 mg/mL

COc1cc(C2(F)CCN(C)CC2)ccc1-c1cc(Nc2cnc(C#N)cn2)n[nH]1 [sulphate pattern D, 5-[[5-[4-(4-fluoro-1-methyl-4-piperidyl)-2-methoxy-phenyl]-1H-pyrazol-3-yl]amino]pyrazine-2-carbonitrile]
Aqueous solubility mg/mL 24 h: 1.6 mg/mL

COc1cc(C2(F)CCN(C)CC2)ccc1-c1cc(Nc2cnc(C#N)cn2)n[nH]1 [tosylate pattern C, 5-[[5-[4-(4-fluoro-1-methyl-4-piperidyl)-2-methoxy-phenyl]-1H-pyrazol-3-yl]amino]pyrazine-2-carbonitrile]
solubility FaSSGF (pH 1.37) [2]: 0.32 mg/mL | solubility FaSSIF (pH 6.71) [2]: 0.04 mg/mL | solubility FeSSIF (pH 5.14) [2]: 0.61 mg/mL | Aqueous solubility mg/mL 24 h: 1.55 mg/mL
